Laboratory results: patent US20240261294A1, “METHOD FOR TREATING IDH INHIBITOR-RESISTANT SUBJECTS” (Eli Lilly and Company, priority 2021, published 2024)
Numbering of substitutions follows the chain as printed. Read-outs that look alike come from different tables or passages of the source.

Columns and labels:
Assay in all cases: Inhibition of 2-HG production in IDH2 mutant U-87 MG cells
Format in all cases: cell-based
IDH2 R140L = target: T1, IDH2 R140L (Homo sapiens, UniProt P48735, R140L); details: 16 hours incubation, 50K cells/well, 100 μl media/well, read-out: Relative IC50 (nM) Mean, inhibition of 2-HG production
T1 construct: expressed in transfected cells; host or cells: U-87 MG
T1 sequence (P48735 40-452 R140L): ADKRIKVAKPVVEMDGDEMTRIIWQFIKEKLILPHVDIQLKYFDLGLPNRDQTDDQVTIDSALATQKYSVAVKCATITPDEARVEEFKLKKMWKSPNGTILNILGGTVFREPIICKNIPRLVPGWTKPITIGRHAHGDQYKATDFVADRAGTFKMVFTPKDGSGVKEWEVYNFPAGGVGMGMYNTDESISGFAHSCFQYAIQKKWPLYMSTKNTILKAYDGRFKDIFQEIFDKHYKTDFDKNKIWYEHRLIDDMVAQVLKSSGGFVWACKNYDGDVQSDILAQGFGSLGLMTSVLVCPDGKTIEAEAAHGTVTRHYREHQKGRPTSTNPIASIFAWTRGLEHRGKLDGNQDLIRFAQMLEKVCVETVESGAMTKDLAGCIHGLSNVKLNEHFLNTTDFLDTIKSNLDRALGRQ

IDH2 R172K = target: T2, IDH2 R172K (Homo sapiens, UniProt P48735, R172K)
T2 sequence (P48735 40-452 R172K): T1 sequence (P48735 40-452 R140L) with L101R, R133K

IDH2 R172K_Q316E cis = target: T3, IDH2 R172K_Q316E cis (Homo sapiens, UniProt P48735, Q316E/R172K); details: 16 hours incubation, 50K cells/well, 100 μl media/well, read-out: Relative IC50 (nM) Mean, inhibition of 2-HG production
T3 construct: expressed in transfected cells; host or cells: U-87 MG
T3 sequence (P48735 40-452 R172K/Q316E): T1 sequence (P48735 40-452 R140L) with L101R, R133K, Q277E

Compound: C=CC(=O)N1CCN([C@@H](CC2CC2)c2ccc([C@H](C)Nc3ncc4c(n3)N(CC)C(=O)OC4)cc2)CC1 [Compound A, 7-[[(1S)-1-[4-[(1S)-2-cyclopropyl-1-(4-prop-2-enoylpiperazin-1-yl)ethyl]phenyl]ethyl]amino]-1-ethyl-4H-pyrimido[4,5-d][1,3]oxazin-2-one]
- IC50 (IDH2 R140L): 243 nM
- IC50 (IDH2 R172K; 16 hours incubation, 50K cells/well, 100 μl media/well, read-out: Relative IC50 (nM) Mean, inhibition of 2-HG production): 56 nM
- IC50 (IDH2 R172K; 72 hours incubation, 12.5K cells/well, 150 μl media/well, read-out: IC50, inhibition of 2-HG production): 13.5 nM
- IC50 (IDH2 R172K_Q316E cis): 76 nM
